Laboratory results: US11427567B2, “Imidazolyl pyrimidinylamine compounds as CDK2 inhibitors” (Incyte Corporation, priority 2019, dated 2022)
pIC50: −log10 of the molar value.

target: CDK2/Cyclin E1 (Homo sapiens (Human), UniProt P24941); assay: CDK2/Cyclin E1 HTRF enzyme activity assay (Example A); assay type: biochemical; conditions: 1 mM ATP
Experimental: Assays were conducted in white 384-well polystyrene plates in a final reaction volume of 8 μL. […] HTRF signals were read after 1 hour at room temperature on a PHERAstar FS plate reader (BMG Labtech). Data was analyzed with IDBS XLFit and GraphPad Prism 5.0 software using a three or four parameter dose response curve to determine IC50 for each compound.

pIC50, ≥ 7.30:
Cc1ccc(-n2cnc(-c3nc(N[C@H]4CCN(S(=O)(=O)c5cnc(N)nc5)C[C@H]4C)ncc3C(F)(F)F)c2)c(C#N)n1 [Example 153, 3-(4-(2-(((3R,4S)-1-((2-Amino-pyrimidin-5-yl)-sulfonyl)-3-methylpiperidin-4-yl)amino)-5-(trifluoromethyl)-pyrimidin-4-yl)-1H-imidazol-1-yl)-6-methyl-picolinonitrile]
Cc1cc(C#N)ccc1-n1cnc(-c2nc(NC3CCN(S(C)(=O)=O)CC3)ncc2C(F)(F)F)c1 [Example 35, 3-Methyl-4-(4-(2-((1-(methylsulfonyl)piperidin-4-yl)amino)-5-(trifluoromethyl)pyrimidin-4-yl)-1H-imidazol-1-yl)benzonitrile]
CS(=O)(=O)N1CC[C@H](Nc2ncc(C(F)(F)F)c(-c3cn(-c4ccnc(C#N)c4Cl)cn3)n2)[C@H](F)C1 [Example 308, 3-Chloro-4-(4-(2-(((3R,4S)-3-fluoro-1-(methylsulfonyl)piperidin-4-yl)amino)-5-(trifluoromethyl)pyrimidin-4-yl)-1H-imidazol-1-yl)picolinonitrile]
CCN(CC)C1CCN(c2ccc(-n3cc(-c4nc(NC5CCN(S(C)(=O)=O)CC5)ncc4C(F)(F)F)nc3C)c(F)c2)CC1 [Example 413, 4-(1-(4-(4-(Diethylamino)piperidin-1-yl)-2-fluorophenyl)-2-methyl-1H-imidazol-4-yl)-N-(1-(methylsulfonyl)piperidin-4-yl)-5-(trifluoromethyl)pyrimidin-2-amine]
CS(=O)(=O)N1CCC(Nc2ncc(C(F)(F)F)c(-c3cn(-c4ccc(Cn5cnnc5)cc4Cl)cn3)n2)CC1 [Example 239, 4-(1-(4-((4H-1,2,4-Triazol-4-yl)methyl)-2-chlorophenyl)-1H-imidazol-4-yl)-N-(1-(methylsulfonyl)piperidin-4-yl)-5-(trifluoromethyl)pyrimidin-2-amine]
CS(=O)(=O)N1CCC(Nc2ncc(C(F)(F)F)c(-c3cn(-c4ccc(CNC5CC5)cc4C(F)(F)F)cn3)n2)CC1 [Example 256]
CS(=O)(=O)N1CCC(Nc2ncc(C(F)(F)F)c(-c3cn(-c4ccc(CN5CC6CCC5C6)cc4Cl)cn3)n2)CC1 (stereo not drawn) [Example 180, 4-(1-(4-((2-Azabicyclo[2.2.1]heptan-2-yl)methyl)-2-chlorophenyl)-1H-imidazol-4-yl)-N-(1-(methylsulfonyl)piperidin-4-yl)-5-(trifluoromethyl)pyrimidin-2-amine]
CNCc1ccc(-n2cnc(-c3nc(NC4CCN(S(C)(=O)=O)CC4)ncc3C(F)(F)F)c2)c(Cl)c1F [Example 268, 4-(1-(2-Chloro-3-fluoro-4-((methylamino)methyl)phenyl)-1H-imidazol-4-yl)-N-(1-(methylsulfonyl)piperidin-4-yl)-5-(trifluoromethyl)pyrimidin-2-amine]
CCNCc1cc(F)c(-n2cnc(-c3nc(NC4CCN(S(C)(=O)=O)CC4)ncc3C(F)(F)F)c2)c(Cl)c1 [Example 393, 4-(1-(2-Chloro-4-((ethylamino)methyl)-6-fluorophenyl)-1H-imdazol-4-yl)-N-(1-(methylsulfonyl)piperidin-4-yl)-5-(trifluoromethyl)pyrimidin-2-amine]
Cc1nc(-c2nc(NC3CCN(S(C)(=O)=O)CC3)ncc2C(F)(F)F)cn1-c1ccc(N2CCC(N3CCCC3)CC2)cc1F [Example 114, 4-(1-(2-Fluoro-4-(4-(pyrrolidin-1-yl)piperidin-1-yl)-phenyl)-2-methyl-1H-imidazol-4-yl)-N-(1-(methyl-sulfonyl)piperidin-4-yl)-5-(trifluoro-methyl)pyrimidin-2-amine]
CS(=O)(=O)N1CCC(Nc2ncc(C(F)(F)F)c(-c3cn(-c4ccc(CNCC(F)F)cc4C(F)(F)F)cn3)n2)CC1 [Example 448, 4-(1-(4-(((2,2-Difluoroethyl)amino)methyl)-2-(trifluoromethyl)phenyl)-1H-imidazol-4-yl)-N-(1-(methylsulfonyl)piperidin-4-yl)-5-(trifluoromethyl)pyrimidin-2-amine]
CS(=O)(=O)N1CCC(Nc2ncc(C(F)(F)F)c(-c3cn(-c4ccc(CN5CCCCC5)cc4Cl)cn3)n2)CC1 [Example 208]
Cc1nc(-c2nc(N[C@H]3CCN(S(C)(=O)=O)C[C@H]3F)ncc2C(F)(F)F)cn1-c1ccc(CN(C)C)cc1F [Example 286, 4-(1-(4-((Dimethylamino)methyl)-2-fluorophenyl)-2-methyl-1H-imidazol-4-yl)-N-((3R,4S)-3-fluoro-1-(methylsulfonyl)piperidin-4-yl)-5-(trifluoromethyl)pyrimidin-2-amine]
Cc1c(C#N)cccc1-n1cnc(-c2nc(N[C@H]3CCN(S(C)(=O)=O)C[C@H]3F)ncc2C(F)(F)F)c1 [Example 42, 3-(4-(2-(((3R,4S)-3-Fluoro-1-(methylsulfonyl)piperidin-4-yl)amino)-5-(trifluoromethyl)pyrimidin-4-yl)-1H-imidazol-1-yl)-2-methylbenzonitrile]
CS(=O)(=O)N1CCC(Nc2ncc(C(F)(F)F)c(-c3cn(-c4ccc(CCN5CCC5)cc4Cl)cn3)n2)CC1 [Example 158, 4-(1-(4-(2-(Azetidin-1-yl)ethyl)-2-chloro-phenyl)-1H-imidazol-4-yl)-N-(1-(methyl-sulfonyl)piperidin-4-yl)-5-(trifluoro-methyl)pyrimidin-2-amine]
CC1CN(Cc2ccc(-n3cnc(-c4nc(N[C@H]5CCN(S(C)(=O)=O)C[C@H]5F)ncc4C(F)(F)F)c3)c(Cl)c2)C1 [Example 224, 4-(1-(2-Chloro-4-((3-methylazetidin-1-yl)methyl)phenyl)-1H-imidazol-4-yl)-N-((3R,4S)-3-fluoro-1-(methylsulfonyl)-piperidin-4-yl)-5-(trifluoromethyl)-pyrimidin-2-amine]
CCNCc1cccc(-n2cnc(-c3nc(NC4CCN(S(C)(=O)=O)CC4)ncc3C(F)(F)F)c2)c1Cl [Example 361, 4-(1-(2-Chloro-3-((ethylamino)methyl)phe-nyl)-1H-imidazol-4-yl)-N-(1-(methylsulfonyl)piperidin-4-yl)-5-(trifluoromethyl)pyrimi-din-2-amine]
CN1CCC(c2ccc(-n3cnc(-c4nc(NC5CCN(S(C)(=O)=O)CC5)ncc4C(F)(F)F)c3)c(Cl)c2)CC1 [Example 439, 4-(1-(2-Chloro-4-(1-methylpiperidin-4-yl)phenyl)-1H-imidazol-4-yl)-N-(1-(methylsulfonyl)piperidin-4-yl)-5-(trifluoromethyl)pyrimidin-2-amine]
COc1ccc(-n2cnc(-c3nc(NC4CCN(S(C)(=O)=O)CC4)ncc3C(F)(F)F)c2)c(C(F)F)n1 [Example 75, 4-(1-(2-(Difluoromethyl)-6-methoxypyridin-3-yl)-1H-imidazol-4-yl)-N-(1-(methylsulfonyl)piperidin-4-yl)-5-(trifluoromethyl)pyrimidin-2-amine]
CNCc1ccc(-n2cnc(-c3nc(NC4CCN(S(C)(=O)=O)CC4)ncc3C(F)(F)F)c2)c(C(F)(F)F)c1 [Example 254, 4-(1-(4-((Methylamino)methyl)-2-(trifluoromethyl)phenyl)-1H-imidazol-4-yl)-N-(1-(methylsulfonyl)piperidin-4-yl)-5-(trifluoromethyl)pyrimidin-2-amine]
Cc1c(-n2cnc(-c3nc(N[C@H]4CCN(S(C)(=O)=O)C[C@H]4F)ncc3C(F)(F)F)c2)ccnc1C#N [Example 302, 4-(4-(2-(((3R,4S)-3-Fluoro-1-(methylsulfonyl)piperidin-4-yl)amino)-5-(trifluoromethyl)pyrimidin-4-yl)-1H-imidazol-1-yl)-3-methylpicolinonitrile]
Cn1cc(S(=O)(=O)N2CCC(Nc3ncc(C(F)(F)F)c(-c4cn(-c5cccnc5C(F)F)cn4)n3)CC2)cn1 [Example 88, 4-(1-(2-(Difluoromethyl)pyridin-3-yl)-1H-imidazol-4-yl)-N-(1-((1-methyl-1H-pyrazol-4-yl)sulfonyl)piperidin-4-yl)-5-(trifluoromethyl) pyrimidin-2-amine]
Cc1nc(-c2nc(N[C@H]3CCN(S(C)(=O)=O)C[C@H]3F)ncc2C(F)(F)F)cn1-c1ccnc(C#N)c1F [Example 310, 3-Fluoro-4-(4-(2-(((3R,4S)-3-fluoro-1-(methylsulfonyl)piperidin-4-yl)amino)-5-(trifluoromethyl)pyrimidin-4-yl)-2-methyl-1H-imidazol-1-yl)picolinonitrile]
CS(=O)(=O)N1CCC(Nc2ncc(C(F)(F)F)c(-c3ncn(-c4ccc(C#N)cc4Cl)c3Cl)n2)CC1 [Example 170, 3-Chloro-4-(5-chloro-4-(2-((1-(methylsulfonyl)piperidin-4-yl)amino)-5-(trifluoromethyl)pyrimidin-4-yl)-1H-imidazol-1-yl)benzonitrile]
CCC(O)c1cccc(-n2cnc(-c3nc(NC4CCN(S(C)(=O)=O)CC4)ncc3C(F)(F)F)c2)c1Cl (stereo not drawn) [Example 85, 1-(2-Chloro-3-(4-(2-((1-(methylsulfonyl)piperidin-4-yl)amino)-5-(trifluoromethyl)pyrimidin-4-yl)-1H-imidazol-1-yl)phenyl)propan-1-ol]
CCNCc1ccc(-n2cnc(-c3nc(NC4CCN(S(C)(=O)=O)CC4)ncc3C(F)(F)F)c2)c(C(F)(F)F)c1 [Example 255, 4-(1-(4-((Ethylamino)methyl)-2-(trifluoromethyl)phenyl)-1H-imidazol-4-yl)-N-(1-(methylsulfonyl)piperidin-4-yl)-5-(trifluoromethyl)pyrimidin-2-amine]
CN(C)C(=O)c1ccc(-n2cnc(-c3nc(NC4CCN(S(C)(=O)=O)CC4)ncc3C(F)(F)F)c2)c(Cl)c1 [Example 135, 3-Chloro-N,N-dimethyl-4-(4-(2-((1-(methylsulfonyl)piperidin-4-yl)amino)-5-(trifluoromethyl)pyrimidin-4-yl)-1H-imidazol-1-yl)benzamide]
